Measured values as given in patent US20240269139A1, “COMPOUNDS FOR TARGETED PROTEIN DEGRADATION OF KINASES” (DANA-FARBER CANCER INSTITUTE, INC., priority 2020, published 2024).
Like-named read-outs stand apart in the source and are kept apart here.

Assays:
Assay type in all cases: cell-based
[1] = molecular target: protein kinases (human kinome) (Homo sapiens, UniProt P16591); conditions: for logFC of FER (P16591-1): Experiment wp168, down; for logFC of FER: FER P16591-1, experiment wp168
[2] = system: protein kinases (human kinome); conditions: for logFC MAPK8 (P45983-4) / logFC: direction down; for logFC MAPK8: MAPK8 P45983-4; for logFC: PTK2B (Q14289-2); for logFC PTK2B: accession Q14289-2; for kinases the bifunctional compound degrades: as stated for the structure in the embodiments; for Kinase hits: kinases significantly downregulated vs DMSO (fold change cutoff −1.25, P-value<0.01), ≤8 h, 0.1-5 μM degrader, 7 cell lines; for Total no. kinase hits: number of degraded kinases per library compound
[3] = molecular target: protein kinases (human kinome) (Homo sapiens, UniProt P11802); conditions: experiment wp168
[4] = MAPK14, accession Q16539-2, experiment wp168, direction of change down
[5] = MAPK14 Q16539-2, experiment wp168
[6] = experiment wp168, direction of change down

Chain of protein kinases (human kinome) (Homo sapiens, UniProt P11802) (P11802 whole entry): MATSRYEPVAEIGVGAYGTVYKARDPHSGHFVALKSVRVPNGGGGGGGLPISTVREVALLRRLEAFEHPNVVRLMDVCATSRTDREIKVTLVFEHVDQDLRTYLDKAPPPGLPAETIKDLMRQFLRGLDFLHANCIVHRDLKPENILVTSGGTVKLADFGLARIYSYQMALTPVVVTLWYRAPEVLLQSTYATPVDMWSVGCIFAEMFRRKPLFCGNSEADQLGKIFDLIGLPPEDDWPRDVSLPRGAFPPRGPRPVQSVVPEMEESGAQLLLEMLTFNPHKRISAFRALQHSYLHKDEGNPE
Chain of protein kinases (human kinome) (Homo sapiens, UniProt P16591) (P16591 whole entry): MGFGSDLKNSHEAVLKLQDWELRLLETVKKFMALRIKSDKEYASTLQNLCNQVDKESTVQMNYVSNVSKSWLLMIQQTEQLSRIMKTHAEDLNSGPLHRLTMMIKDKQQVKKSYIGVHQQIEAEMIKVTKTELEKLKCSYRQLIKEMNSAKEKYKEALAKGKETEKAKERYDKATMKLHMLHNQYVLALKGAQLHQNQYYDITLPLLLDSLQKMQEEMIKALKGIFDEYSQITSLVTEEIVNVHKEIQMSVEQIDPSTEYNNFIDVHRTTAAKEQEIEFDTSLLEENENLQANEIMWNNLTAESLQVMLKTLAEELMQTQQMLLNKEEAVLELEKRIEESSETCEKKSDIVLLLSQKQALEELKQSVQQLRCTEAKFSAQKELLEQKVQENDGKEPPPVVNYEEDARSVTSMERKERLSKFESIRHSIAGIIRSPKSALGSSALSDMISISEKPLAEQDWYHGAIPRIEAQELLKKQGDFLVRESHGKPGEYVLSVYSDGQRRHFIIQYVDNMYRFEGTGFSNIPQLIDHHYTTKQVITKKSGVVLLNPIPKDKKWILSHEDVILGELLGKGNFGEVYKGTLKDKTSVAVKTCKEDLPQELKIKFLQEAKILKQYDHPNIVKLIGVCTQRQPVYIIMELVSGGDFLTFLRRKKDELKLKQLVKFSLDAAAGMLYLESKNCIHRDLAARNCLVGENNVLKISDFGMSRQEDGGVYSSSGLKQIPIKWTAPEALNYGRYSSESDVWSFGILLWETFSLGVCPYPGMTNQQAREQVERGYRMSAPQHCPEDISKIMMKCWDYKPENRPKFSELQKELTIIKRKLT

| Compound | logFC of FER (P16591-1) [1] | logFC of FER [1] | logFC FYN ([2]; Accession P06241-2, experiment wp168) | logFC MAP3K20 (Q9NYL2-2) ([2]; Experiment wp168) | logFC MAPK8 (P45983-4) ([2]; Experiment wp168) | logFC FYN ([2]; FYN P06241-2, experiment wp168) | logFC MAPK8 ([2]; experiment wp168) | logFC MAPK14 [2, 4] | logFC MAPK14 [2, 5] | logFC ([2]; experiment wp168) | logFC PTK2B [2, 6] | kinases the bifunctional compound degrades [2] | logFC MAP3K20 (Q9NYL2-2) ([2]; experiment wp168) | Kinase hits [2] | Total no. kinase hits [2] | logFC CDK4 (P11802) [3] |
| --- | --- | --- | --- | --- | --- | --- | --- | --- | --- | --- | --- | --- | --- | --- | --- | --- |
| Cc1ccc(NC(=O)c2cccc(C(F)(F)F)c2)cc1N1Cc2cnc(Nc3ccc(N4CCN(CCCOc5cccc6c5C(=O)N(C5CCC(=O)NC5=O)C6=O)CC4)nc3)nc2N(C)C1=O (stereo not drawn) [DB0662] | −1.481 | −1.481 | −0.5636 | −1.006 | −0.8961 | −0.5636 | −0.8961 | −1.34 | −1.34 | −3.245 | −3.245 | ABL1, ABL2, BLK, BUB1, CDK11B, CDK4, CSK, EPHB6, FER. FYN, GAK, LCK, LIMK1, MAP3K1, MAP3K11, MAP3K20, MAP4K1, MAPK14, MAPK8, MAPK9, MAPKAPK2, MKNK2, PAK4, PDIK1L, PTK2B, RPS6KA1, RPS6KA3, SIK2, SRC, TNK2, UHMK1, ULK1, and YES1 | −1.006 | ABL1, ABL2, BLK, BUB1, CDK11B, CDK4, CSK, EPHB6, FER, FYN, GAK, LCK, LIMK1, MAP3K1, MAP3K11, MAP3K20, MAP4K1, MAPK14, MAPK8, MAPK9, MAPKAPK2, MKNK2, PAK4, PDIK1L, PTK2B, RPS6KA1, RPS6KA3, SIK2, SRC, TNK2, UHMK1, ULK1,YES1 | 33 | −0.9883 |
| Cc1ccc(NC(=O)c2cccc(C(F)(F)F)c2)cc1N1Cc2cnc(Nc3ccc(N4CCN(CCCCC(=O)N[C@H](C(=O)N5C[C@H](O)C[C@H]5C(=O)N[C@@H](C)c5ccc(-c6scnc6C)cc5)C(C)(C)C)CC4)nc3)nc2N(C)C1=O [DB1113] | −1.118 | −1.118 |  | −0.9693 | −0.3642 |  | −0.3642 | −1.588 | −1.588 | −1.705 | −1.705 | ABL1, ABL2, BLK, CDK11B, CDK4, CSK, EPHA3, FER, GAK, LIMK1, MAP3K20, MAP4K1, MAP4K2, MAP4K3, MAP4K5, MAPK14, MAPK7, MAPK8, MAPK9, MAPKAPK2, MAPKAPK3, NLK, PDIK1L, PTK2B, RIPK1, RPS6KA1, RPS6KA3, SIK2, SIK3, STK35, TNK2, and ULK1 | −0.9693 | ABL1, ABL2, BLK, CDK11B, CDK4, CSK, EPHA3, FER, GAK, LIMK1, MAP3K20, MAP4K1, MAP4K2, MAP4K3, MAP4K5, MAPK14, MAPK7, MAPK8, MAPK9, MAPKAPK2, MAPKAPK3, NLK, PDIK1L, PTK2B, RIPK1, RPS6KA1, RPS6KA3, SIK2, SIK3, STK35, TNK2, ULK1 | 31 | −0.4373 |
